Source: patent US20080027008A1, “Antitumorigenic Drug Combination” (priority 2006, published 2008)

System: Dogs with Lymphoma
Test: Efficacy Study for Treatment of Dogs with Lymphoma
Type: in vivo
Details: treatment received population of dogs
Protocol: Twenty-five (25) dogs of varying sex, weight, breed and age (5.5-14.0 yrs) were entered for the study. […] All dogs entered for study had received prior chemotherapy and enrolled to the study following disease relapse.
All dogs were treated with N-[2-[(4-HYDROXYPHENYL)AMINO]-3-PYRIDYL]-4-METHOXYBENZENESULFONAMIDE at an initial dose of 350 mg/m2 PO QD for 7 days then treated at 350 mg/m2 EOD×21 days. If no significant objective response or doselimiting toxicities were noted after 28 days on therapy, a QD regimen was restarted for 7 days. Otherwise, dogs continued on EOD dosing until study discontinuation.
All dogs were treated with ABT-510 at a dose of 1 mg/kg SQ divided BID starting 24 hours after the first dose of N-[2-[(4-HYDROXYPHENYL)AMINO]-3-PYRIDYL]-4-METHOXYBENZENESULFONAMIDE was administered.
Dogs treated with N-[2-[(4-HYDROXYPHENYL)AMINO]-3-PYRIDYL]-4-METHOXYBENZENESULFONAMIDE and ABT-510 therapy were evaluated at Day 0, Day 7, Day 28 then every 28 days thereafter. Assessment of tumor burden was made based on measurement of target lymph nodes (no more than 3 nodes/animal). The lymph node volume (I×w×h) was calculated for each target lymph node and assessed as a sum of total tumor burden. Standard response endpoints were evaluated based on the criteria below: • Complete response (CR) is defined as disappearance of all clinical evidence of cancer and of any signs related to the cancer. • Partial response (PR) is defined as a 50% or greater decrease in the sum of the products of measurements for representative lesions, without an increase in size of any lesions or appearance of any new lesions. • Minimal response (MR) is defined as a 25% or greater decrease in the sum of the products of measurements for representative lesions, without an increase in size of any lesions or appearance of any new lesions. • Stable disease is defined as no response or a response of less than that defined for partial response or progressive disease without appearance of any new lesions or worsening of clinical signs. • Progressive disease is defined as an unequivocal increase of at least 50% in the size of any measurable lesion or appearance of new lesions.
The Intent-to-Treat population included all 25 dogs enrolled in the study. Five (5) dogs withdrew from the study early due to their inability to receive N-[2-[(4-HYDROXYPHENYL)AMINO]-3-PYRIDYL]-4-METHOXYBENZENESULFONAMIDE and ABT-510 longer than 7 days. Four (4) of these dogs withdrew due to rapid lymphoma progression. One (1) dog withdrew due to owner decision related to side effects while receiving study agents.
The Treatment Received population included dogs who received N-[2-[(4-HYDROXYPHENYL)AMINO]-3-PYRIDYL]-4-METHOXYBENZENESULFONAMIDE and ABT-510 therapy for longer than 7 days. […]

## COc1ccc(S(=O)(=O)Nc2cccnc2Nc2ccc(O)cc2)cc1 [Single Agent, N-[2-[(4-HYDROXYPHENYL)AMINO]-3-PYRIDYL]-4-METHOXYBENZENESULFONAMIDE]
mean
  Response Duration, Mean: Mean = 65 days
  Time to Progression, Mean: Mean = 21 days
median
  Response Duration, Median: Median = 24 days
  Time to Progression, Median: Median = 18 days
